Laboratory results published in US10894775B2, “Piperidine derivatives as liver X receptor beta agonists, compositions, and their use” (Merck Sharp & Dohme Corp., priority 2016, dated 2021).
Read-outs that look alike come from different tables or passages of the source.

How the values were obtained:
[1] = target: T1, glutathione-S-transferase (GST) tagged LXRbeta LBD (ligand binding domain) (Homo sapiens, UniProt P55055); assay: LanthaScreen TR-FRET Liver X Receptor Coactivator Assay, LXR beta; assay type: biochemical; details: for Emax: read-out: LXR beta actiivty at max dose (%); for EC50: potency (Inflection Point) of compound-induced co-activator recruitment, TR-FRET
T1 construct: purchased Invitrogen pv4658.pps
T1 sequence (P55055 222-460 limits assumed): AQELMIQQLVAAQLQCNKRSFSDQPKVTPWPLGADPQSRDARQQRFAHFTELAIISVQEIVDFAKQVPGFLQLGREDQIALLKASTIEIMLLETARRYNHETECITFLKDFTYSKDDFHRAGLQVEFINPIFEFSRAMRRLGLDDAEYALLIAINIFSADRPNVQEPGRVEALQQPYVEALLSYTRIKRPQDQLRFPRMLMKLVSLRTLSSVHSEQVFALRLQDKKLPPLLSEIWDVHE
Procedure, shortened: (§1)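 TR-FRET read-out of coactivator recruitment: fluorescein-coactivator peptide plus Tb-anti-GST antibody added to LBD preincubated with compound; incubated at RT before reading.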

[2] = target: T2, glutathione-S-transferase (GST) tagged LXRalpha LBD (ligand binding domain) (Homo sapiens, UniProt Q13133); assay: LanthaScreen TR-FRET Liver X Receptor Coactivator Assay, LXR alpha; assay type: biochemical; details: for Emax: read-out: LXR alpha actiivty at max dose (%); for LXR alpha IP (nM) / EC50: potency (Inflection Point) of compound-induced co-activator recruitment, TR-FRET
T2 construct: purchased Invitrogen pv4655
T2 sequence (Q13133 209-447 limits assumed): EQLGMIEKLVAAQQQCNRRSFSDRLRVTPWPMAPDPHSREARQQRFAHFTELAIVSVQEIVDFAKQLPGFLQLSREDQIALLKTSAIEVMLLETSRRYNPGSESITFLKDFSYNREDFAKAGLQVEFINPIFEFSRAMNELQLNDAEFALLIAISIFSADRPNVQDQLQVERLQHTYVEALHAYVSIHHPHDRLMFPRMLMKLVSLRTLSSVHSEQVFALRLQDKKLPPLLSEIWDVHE
Procedure, shortened: as §1

[3] = efficacy (Emax) in relation to reference dual agonist T0901317

Row | SMILES | Emax [1, 3] [%] | EC50 ([1]; read-out: LXR beta IP) [nM] | Emax [2, 3] [%] | LXR alpha IP (nM) [2] | EC50 ([2]; read-out: LXR alpha IP) [nM] | EC50 ([1]; LXR beta IP (nM)) [nM] | Emax [1] [%] | Emax [2] [%] | EC50 ([2]; LXR alpha IP (nM)) [nM]
1 | CN(C)C(=O)c1ccc([S+]([O-])C2CCC3(CC2)CCN(C(=O)C(O)(c2cc(Cl)cc(Cl)c2)C(F)(F)F)CC3)cc1Cl (single isomer, unassigned) [Example 20-1, 2-chloro-4-(3-((R or S)-2-(3,5-dichlorophenyl)-3,3,3-trifluoro-2-hydroxypropanoyl)-3-azaspiro[5.5]undecan-9-ylsulfinyl)-N,N-dimethylbenzamide] | – | – | – | No IP | – | 938 | 50 | 0 | –
2 | CN(C)C(=O)c1ccc(S(=O)(=O)C2CCC3(CC2)CCN(C(=O)C(O)(c2cc(Cl)cc(Cl)c2)C(F)(F)F)CC3)cc1Cl (single isomer, unassigned) [Example 21-1, 2-chloro-4-(3-((R or S)-2-(3,5-dichlorophenyl)-3,3,3-trifluoro-2-hydroxypropanoyl)-3-azaspiro[5.5]undecan-9-ylsulfonyl)-N,N-dimethylbenzamide] | – | – | – | No IP | – | 1460 | 50 | 0 | –
3 | CNC(=O)c1ccc(NCCCCC2CCN(C(=O)C3(c4ccccc4)CCCC3)CC2)cc1Cl [Example 1-4, 2-chloro-N-methyl-4-(4-(1-(1-phenylcyclopentanecarbonyl)piperidin-4-yl)butylamino)benzamide] | 42 | 183 | 2 | No IP | – | – | – | – | –
4 | CN(C)C(=O)c1ccc(NCCCC2CCN(S(=O)(=O)c3c(Cl)cccc3Cl)CC2)cc1Cl [Example 1-12, 2-chloro-4-(3-(1-(2,6-dichlorophenylsulfonyl)piperidin-4-yl)propylamino)-N,N-dimethylbenzamide] | 82 | 27 | 46 | – | 855 | – | – | – | –
5 | CN(C)C(=O)c1ccc(NCCC2CCN(C(=O)OCc3ccccc3)CC2)cc1Cl [Example 1-13, benzyl 4-(2-(3-chloro-4-(dimethylcarbamoyl)phenylamino)ethyl)piperidine-1-carboxylate] | 21 | 104 | 12 | No IP | – | – | – | – | –
6 | CN(C)C(=O)c1ccc(NCCCCC2CCN(C(=O)OCc3ccccc3)CC2)cc1Cl [Example 1-14, benzyl 4-(4-(3-chloro-4-(dimethylcarbamoyl)phenylamino)butyl)piperidine-1-carboxylate] | 41 | 106 | 14 | – | 1970 | – | – | – | –
7 | CN(C)C(=O)c1ccc(NCCCCC2CCN(C(=O)C(O)(c3ccccc3)C(F)(F)F)CC2)nc1Cl (centres unmarked) [Example 2-1, 2-chloro-N,N-dimethyl-6-(4-(1-(3,3,3-trifluoro-2-hydroxy-2-phenylpropanoyl)piperidin-4-yl)butylamino)nicotinamide] | – | 29 | – | – | – | – | 52 | 25 | 1250
8 | CN(C)C(=O)c1ccc(N(C)CCC2CC3(CCN(C(=O)C(C)(C)c4ccccc4)CC3)C2)nc1Cl [Example 12-1, 2-chloro-N,N-dimethyl-6-(methyl(2-(7-(2-methyl-2-phenylpropanoyl)-7-azaspiro[3.5]nonan-2-yl)ethyl)amino)nicotinamide] | – | 430 | – | No IP | – | – | 34 | 5 | –
9 | CN(Cc1ccc(C(=O)N(C)C)c(Cl)c1)CC1CC12CCN(C(=O)C(C)(C)c1ccccc1)CC2 (centres unmarked) [Example 14-1, 2-chloro-N,N-dimethyl-4-((methyl((6-(2-methyl-2-phenylpropanoyl)-6-azaspiro[2.5]octan-1-yl)methyl)amino)methyl)benzamide] | 99 | 1260 | 33 | – | 15500 | – | – | – | –
10 | CN(C)C(=O)c1ccc(CCCCC2CCN(C(=O)C(C)(C)c3ccccc3)CC2)cc1Cl [Example 15-4, 2-chloro-N,N-dimethyl-4-(4-(1-(2-methyl-2-phenylpropanoyl)piperidin-4-yl)butyl)benzamide] | 103 | 32 | 39 | – | 463 | – | – | – | –

Continued, in another order:

Row | Emax [1, 3] [%] | EC50 ([1]; read-out: LXR beta IP) [nM] | Emax [2, 3] [%] | LXR alpha IP (nM) [2] | EC50 ([2]; read-out: LXR alpha IP) [nM] | SMILES | EC50 ([1]; LXR beta IP (nM)) [nM] | Emax [1] [%] | Emax [2] [%] | EC50 ([2]; LXR alpha IP (nM)) [nM]
11 | 95 | 136 | 0 | No IP | – | CCOc1cccc(C(O)(C(=O)N2CCC3(CCC(Sc4ccc(C(=O)N(C)C)c(Cl)c4)CC3)CC2)C(F)(F)F)c1 (single isomer, unassigned) [Example 19-3, 2-chloro-4-(3-((S or R)-2-(3-ethoxyphenyl)-3,3,3-trifluoro-2-hydroxypropanoyl)-3-azaspiro[5.5]undecan-9-ylthio)-N,N-dimethylbenzamide] | – | – | – | –
12 | 118 | 27 | 24 | – | 946 | COc1cccc([C@@](O)(C(=O)N2CCC([C@H]3C[C@H]3CSc3ccc(C(=O)N(C)C)c(Cl)c3)CC2)C(F)(F)F)c1 (single isomer, unassigned) [Example 23-1, 2-chloro-N,N-dimethyl-4-(((1R,2R or 1S,2S)-2-(1-((R or S)-3,3,3-trifluoro-2-hydroxy-2-(3-methoxyphenyl)propanoyl)piperidin-4-yl)cyclopropyl)methylthio)benzamide] | – | – | – | –
13 | 108 | 56 | 50 | – | 423 | CN(C)C(=O)c1ccc(CCCC2CC3(CCN(C(=O)C(C)(C)c4ccccc4)CC3)C2)cc1Cl [Example 16-3, 2-chloro-N,N-dimethyl-4-(3-(7-(2-methyl-2-phenylpropanoyl)-7-azaspiro[3.5]nonan-2-yl)propyl)benzamide] | – | – | – | –
14 | 57 | 1990 | 2 | No IP | – | CN(C)C(=O)c1ccc(S(=O)(=O)CCCCC2CCN(C(=O)C(C)(C)c3ccccc3)CC2)cc1Cl [Example 22-1, 2-chloro-N,N-dimethyl-4-(4-(1-(2-methyl-2-phenylpropanoyl)piperidin-4-yl)butylsulfonyl)benzamide] | – | – | – | –
